# What was measured:
# [1] = test system: ICR mice; assay: In vivo acute pulmonary thrombosis; set-up: species or system mouse; details: three days, positive control
# [2] = test system: ICR mice; assay: Tail suspension test; format: in vivo, mouse; details: p.o. 20 mg/kg, positive control, final 4 min of 6 min test
# [3] = test system: ICR mice; assay: Forced swimming test; format: in vivo, mouse; details: p.o. 20 mg/kg, positive control, final 4 min of 6 min test
# [4] = biological target: P2Y12 (Homo sapiens, UniProt Q9H244); assay: P2Y12 β-Arrestin recruitment assay; format: cell-based; details: at similar concentrations as TP1; antagonist mode, n = 2
# P2Y12, sequence (Q9H244 whole entry): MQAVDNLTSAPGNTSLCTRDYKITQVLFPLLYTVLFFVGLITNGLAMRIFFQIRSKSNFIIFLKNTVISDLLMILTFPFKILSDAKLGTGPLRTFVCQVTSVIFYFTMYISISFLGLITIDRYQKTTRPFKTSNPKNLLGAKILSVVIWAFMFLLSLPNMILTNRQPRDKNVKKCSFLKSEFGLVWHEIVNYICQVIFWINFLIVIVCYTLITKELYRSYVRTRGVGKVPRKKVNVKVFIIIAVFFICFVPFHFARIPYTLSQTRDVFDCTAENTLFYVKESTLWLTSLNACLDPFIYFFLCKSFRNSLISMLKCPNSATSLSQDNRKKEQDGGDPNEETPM
structure (smiles),measurement,setting,value
CC(=O)Oc1ccccc1C(=O)O [aspirin],"Thrombus formation in the lung, effect relative to ginsentide TP1",[1]; oral aspirin 100 mg/kg,comparable
COC(=O)[C@H](c1ccccc1Cl)N1CCc2sccc2C1 [clopidogrel],"Thrombus formation in the lung, effect relative to ginsentide TP1",[1]; oral clopidogrel 50 mg/kg,comparable
CNCCC(Oc1ccc(C(F)(F)F)cc1)c1ccccc1 (stereo not drawn) [fluoxetine],"Decrease of immobility time, tail suspension test",[2],30.01 ± 7.22 s
same,"Decrease of immobility time, forced swimming test",[3],42.52 ± 9.96 s
CC(C)=CCC[C@](C)(O[C@@H]1O[C@H](CO[C@@H]2O[C@H](CO)[C@@H](O)[C@H](O)[C@H]2O)[C@@H](O)[C@H](O)[C@H]1O)[C@H]1CC[C@]2(C)[C@@H]1[C@H](O)C[C@@H]1[C@@]3(C)CC[C@H](O[C@@H]4O[C@H](CO)[C@@H](O)[C@H](O)[C@H]4O[C@@H]4O[C@H](CO)[C@@H](O)[C@H](O)[C@H]4O)C(C)(C)[C@@H]3CC[C@]12C [ginsenoside Rb1],Inhibitory effects against P2Y12 activation,[4],did not display inhibitory effects
CC(C)=CCC[C@](C)(O[C@@H]1O[C@H](CO)[C@@H](O)[C@H](O)[C@H]1O)[C@H]1CC[C@]2(C)[C@@H]1[C@H](O)C[C@@H]1[C@@]3(C)CC[C@H](O)C(C)(C)[C@@H]3[C@@H](O[C@@H]3O[C@H](CO)[C@@H](O)[C@H](O)[C@H]3O)C[C@]12C [ginsenoside Rg1],Inhibitory effects against P2Y12 activation,[4],did not display inhibitory effects

# Source: PMC10840477 (Acta Pharmaceutica Sinica. B, 2023)
